Assay [1] relates to IRE1/XBP1s signaling pathway. The experiment in a line: XBP1-RLuc splicing reporter in HEK293T-REx cells. The assay is classed as cell-based. To be noted: HEK293-T-REx; HEK293T-REx XBP1-RLuc cells, 18 hr; read-out: EC50 of XBP1-RLuc activation. The method, then:
FIG. 2A and FIG. 2B. Activation of RLuc luminescence in HEK293T-Rex cells stably expressing XBP1s-RLuc treated with 10 μM IRE1 activators in the presence or absence of IRE1 inhibitor 4 μ8c (32 μM) for 18 hr. Luminescence is shown as % signal relative to Tg treatment (500 nM; 18 hr). Error bars represent standard deviation for n=3 replicates (FIG. 2A), Activation of RLuc luminescence in HEK293T-Rex cells stably expressing XBP1s-RLuc treated with the indicated concentrations of IRE1 activator compounds for 18 hr. Luminescence is shown as % signal relative to Tg treatment (500 nM; 18 hr) Error bars represent standard deviation for n=3 replicates (FIG. 2B).
HEK293T-Rex cells incorporating either the XBP1s-Rluc or ERSE-FLuc reporters were collected by trypsinization and resuspended at a density of 500,000 cells per mL. The assay was started by dispensing 5 μL of cell suspension into each well of white, solid-bottom 1536-well plates using a flying reagent dispenser (FRD) and placed into an online incubator for 3 hr. Cells were then treated with 34 nL/well of either test compounds to give final concentrations of 5.17 μM, DMSO (low control, final concentration 0.68%, 0% activation) or 37 μM of Delta-7 thapsigargin (high control, final concentration 500 nM, 100% activation). Plates were incubated for 18 hr at 37° C., removed from the incubator and equilibrated to room temperature for 10 min. Luciferase activity was detected by addition of 5 μL of ONE-Glo reagent (Promega) to each well. After a 10 min incubation time, light emission was measured with the ViewLux reader (PerkinElmer).
The percent activation of each test compound was calculated as follows: % Activation=100*(Test Compound-Median Low Control)/(Median High Control Median Low Control). Primary screening of the 646,275 compound library at Scripps Florida yielded 10,114 hits for XBP1s Renilla Luciferase activity at ≥13.83% activation by thapsigargin. Compounds that hit in more than 7 screens (promiscuity score) were eliminated, as well as those that elicited HSP70 activation. The top 6,391 remaining compounds (activation≥16.36%) were moved forward to triplicate confirmation screening and HEK TREX CTG cytotoxicity counterscreening. Duplicates were removed from the resulting list, and the top 638 activating compounds (≥15.92%) were moved forward for triplicate titration screening and HEK TREX CTG titration counterscreening.
A HEK293^T-REx cell line that stably expresses a XBP1-Renilla luciferase (XBP1-RLuc) splicing reporter was used to identify compounds that activated the IRE1/XBP1s signaling pathway^37. Activated IRE1selectively splices mRNA encoded by this reporter, resulting in a frame-shift that allows expression of the active Renilla luciferase enzyme^37. […]

Assay [2] deals with IRE1 (Homo sapiens, UniProt O75460). The experiment in a line: IRE1 phosphorylation by Phos-tag SDS-PAGE and immunoblotting in HEK293T cells. Format: cell-based. To be noted: test compound alone, 10 μM, 4 hours. On the procedure:
FIG. 3A-FIG. 3D. […] Error bars show SEM for n=3. […] Error bars show SEM for n=3. […] Error bars show SEM for n=3.
Cell lysates were prepared as previously described in RIPA buffer (50 mM Tris, pH 7.5, 150 mM NaCl, 0.1% SDS, 1% Triton X-100, 0.5% deoxycholate and protease inhibitor cocktail (Roche). Total protein concentration in cellular lysates was normalized using the Bio-Rad protein assay. Lysates were then denatured with 1× Laemmli buffer+100 mM DTT and boiled before being separated by SDS-PAGE. Samples were transferred onto nitrocellulose membranes (Bio-Rad) for immunoblotting and blocked with 5% milk in Tris-buffered saline, 0.5% Tween-20 (TBST) following incubation overnight at 4° C. with primary antibodies. Membranes were washed in TBST, incubated with IR-Dye conjugated secondary antibodies and analyzed using Odyssey Infrared Imaging System (LI-COR Biosciences). Quantification was carried out with LI-COR Image Studio software.
Compounds that activate IRE1 through binding the IRE1 kinase active site and inhibiting IRE1 autophosphorylation can elicit off-target activity likely associated with binding to other protein kinases.^20, 35, 36 Thus, the purpose of this example was to define the dependence of the present compounds on IRE1 kinase activity. HEK293T cells were treated with compound 198, 474, or 970 in the absence or presence of Tg, and IRE1 phosphorylation was monitored by using Phos-tag SDS-PAGE and immunoblotting. As a control, cells were treated with APY29—an IRE1 kinase site inhibitor that allosterically activates the IRE1 RNAse^20 in the absence or presence of Tg.

In assay [3] the test system is PERK geneset. Kind of assay: RNAseq geneset analysis in HEK293T cells, PERK geneset. To be noted: 6 h. The assay is classed as cell-based, human. The method, then: Cells were lysed and total RNA collected using the RNeasy mini kit, according to manufacturer's instructions (Qiagen). Conventional RNA-seq was conducted via BGI Americas on the BGI Proprietary platform, providing single-end 50 bp reads at 20 million reads per sample. Alignment of sequencing data was done using DNAstar Lasergene SeqManPro to the GRCh37. p 13 human genome reference assembly, and assembly data were imported into ArrayStar 12.2 with QSeq (DNAStar Inc.) to quantify the gene expression levels and normalization to reads per kilobase per million (RPKM). Differential expression analysis and statistical significance calculations between different conditions was assessed using “DESeq” in R, compared to vehicle-treated cells, using a standard negative binomial fit of the RPKM data to generate Fold Change quantifications.
The purpose of this example was to define the ability of the compounds to selectively induce expression of IRE1/XBP1s target genes: for this purpose, RNAseq was performed on HEK293T cells that had been treated with compound No. 198, 474, or 970 for 6 h. As a control, RNAseq was performed on cells that had been treated with the global UPR activator Tg. […] These include the ER stress-responsive transcription factor XBP1 and the ER proteostasis factors SEC24D, […], and HERPUD1^8.
The next step defined the selectivity of the compounds for IRE1/XBP1s signaling relative to other arms of the UPR. […] To overcome this challenge, the expression of individual genes that are included in these genesets were normalized to the expression observed in Tg-treated cells (Tg representing 100% activation of these genes). It was therefore possible to directly compare gene expression without complications arising from differential expression^42.

Some results are limits rather than exact numbers.

IRE1, sequence (O75460 19-977): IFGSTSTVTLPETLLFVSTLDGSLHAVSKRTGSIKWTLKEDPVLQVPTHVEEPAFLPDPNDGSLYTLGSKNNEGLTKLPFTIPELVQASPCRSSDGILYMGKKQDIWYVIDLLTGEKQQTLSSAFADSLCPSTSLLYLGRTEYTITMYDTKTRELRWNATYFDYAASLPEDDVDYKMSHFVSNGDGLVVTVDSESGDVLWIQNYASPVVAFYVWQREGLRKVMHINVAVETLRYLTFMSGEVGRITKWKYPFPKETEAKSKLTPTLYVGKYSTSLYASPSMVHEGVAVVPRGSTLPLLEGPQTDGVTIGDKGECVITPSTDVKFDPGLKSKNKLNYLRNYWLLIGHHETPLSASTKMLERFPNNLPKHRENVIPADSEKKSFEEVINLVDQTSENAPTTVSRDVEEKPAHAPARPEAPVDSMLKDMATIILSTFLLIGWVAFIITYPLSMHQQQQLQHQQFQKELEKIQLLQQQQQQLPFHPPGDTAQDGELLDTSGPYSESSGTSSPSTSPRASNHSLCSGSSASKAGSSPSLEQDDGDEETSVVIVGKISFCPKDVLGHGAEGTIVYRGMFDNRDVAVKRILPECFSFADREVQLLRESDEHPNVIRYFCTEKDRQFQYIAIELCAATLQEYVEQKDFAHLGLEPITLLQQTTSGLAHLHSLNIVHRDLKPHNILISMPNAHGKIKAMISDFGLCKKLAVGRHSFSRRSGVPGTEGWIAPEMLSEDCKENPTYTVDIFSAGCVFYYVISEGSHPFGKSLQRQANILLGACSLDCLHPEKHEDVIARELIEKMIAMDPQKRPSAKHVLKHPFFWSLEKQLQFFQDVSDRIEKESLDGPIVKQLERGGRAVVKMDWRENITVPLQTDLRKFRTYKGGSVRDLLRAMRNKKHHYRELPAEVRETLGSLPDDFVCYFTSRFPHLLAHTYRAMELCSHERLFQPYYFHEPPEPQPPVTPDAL

By EC50 is commonly meant the midpoint of the concentration-response curve. In the case of `CCOC(CNC(=O)C1CCCN(Cc2nc(-c3ccc(Cl)cc3)oc2C)C1)OCC` (stereo not drawn) [Compound 198], the EC50 in assay [1] is under 3000 nM. For the same molecule, in assay [2], the “phosphorylated IRE1” value is listed as “increased phosphorylated IRE1”. In addition, the “expression of the PERK geneset” value in assay [3] is recorded as “increased expression of the PERK geneset”.
Regarding `O=C(CN(Cc1ccc(Cl)cc1)S(=O)(=O)c1cccnc1)N1CCc2ccccc21` [Compound 970], in assay [1], the EC50 is under 3000 nM. In addition, the “phosphorylated IRE1” value in assay [2] is recorded as “increased phosphorylated IRE1”. The “expression of the PERK geneset” value in assay [3] is “did not demonstrate this effect”.
The like results for `Cc1ccc(OCCN(C)C(=O)Cn2cc(NC(=O)CCOc3ccccc3)cn2)cc1` [Compound 474] were, in that order, under 3000 nM, “increased phosphorylated IRE1” and “did not demonstrate this effect”.

Source of the values: US11426402B2, “IRE1 activating compounds for use in therapy” (The Scripps Research Institute, priority 2019, dated 2022).
